Results on 11 compounds are retold here after ChEMBL document CHEMBL1132825, “Aminoanthraquinones as novel ligands at the polyamine binding site on the N-methyl-D-aspartate receptor complex” (Bioorg Med Chem Lett, 2000).

A value given as a limit tells only on which side of the number the result lay.

Test [1] deals with Glutamate NMDA receptor. In words: Displacement of [3H]-SPD from N-methyl-D-aspartate glutamate receptor. In kind it is protein-complex assay, Rattus norvegicus. (Loss of bound radioactivity is the signal in a displacement assay; it reports binding, not function.)
The target in test [2] is Glutamate NMDA receptor. In words: Displacement of [3H]MK-801 from N-methyl-D-aspartate glutamate receptor. In kind it is protein-complex assay, Rattus norvegicus.

Turning to `Nc1cccc2c1C(=O)c1c(N)ccc(N)c1C2=O`, the IC50 – broadly, the point on the concentration scale where inhibition reaches its midpoint – at Glutamate NMDA receptor [1] was 184 µM; at Glutamate NMDA receptor [2], 232 µM.

For the compound `Nc1ccc2c(c1)C(=O)c1ccccc1C2=O`, the IC50 on Glutamate NMDA receptor [1] came out at 116 µM; on Glutamate NMDA receptor [2], 119 µM.

Turning to `Nc1ccc(N)c2c1C(=O)c1ccccc1C2=O`, the IC50 at Glutamate NMDA receptor [1] amounted to 412 µM; at Glutamate NMDA receptor [2] it was 567 µM.

On to `Nc1ccc(N)c2c1C(=O)c1c(N)ccc(N)c1C2=O`, for which the IC50 at Glutamate NMDA receptor [1] and at Glutamate NMDA receptor [2] was above 1000 µM throughout.

With `Nc1ccc(O)c2c1C(=O)c1ccccc1C2=O`, the IC50 on Glutamate NMDA receptor [1] came out at 179 µM; on Glutamate NMDA receptor [2], 158 µM.

For the compound `Nc1cccc2c1C(=O)c1ccccc1C2=O`, the values for the IC50 at Glutamate NMDA receptor [1] and at Glutamate NMDA receptor [2] were 218 µM and 140 µM, respectively.

Take `Nc1ccc(O)c2c1C(=O)c1c(N)ccc(O)c1C2=O`: the half-inhibitory concentration (IC50) at Glutamate NMDA receptor [1] and on Glutamate NMDA receptor [2] was above 1000 µM throughout.

Take `Nc1ccc2c(c1N)C(=O)c1ccccc1C2=O`: the IC50 at Glutamate NMDA receptor [1] is 602 µM; on Glutamate NMDA receptor [2], 414 µM.

With `Nc1cccc2c1C(=O)c1cccc(N)c1C2=O`, the IC50 at Glutamate NMDA receptor [1] was 338 µM; at Glutamate NMDA receptor [2] it was 323 µM.

Take `Nc1ccc2c(c1)C(=O)c1ccc(N)cc1C2=O`: the IC50 at Glutamate NMDA receptor [1] and at Glutamate NMDA receptor [2] was above 1000 µM throughout.

Take `O=C1c2ccccc2C(=O)c2ccccc21` [ANTHRAQUINONE]: the half-maximal inhibitory concentration (IC50) at Glutamate NMDA receptor [1] and at Glutamate NMDA receptor [2] was above 1000 µM throughout.
